Laboratory results taken from patent publication US20230106519A1, “GOLD(III)-BIGUANIDE PRODRUGS, METHODS OF PREPARATION AND USES THEREOF” (National University of Singapore, priority 2020, published 2023).
Values joined by “and” are separate entries in the source; they are usually repeats but may differ in a detail not shown here. Identical values can stand only once.

Tests used:
MDA-MB-231 cells [1] = tested on: MDA-MB-231 cells
Method: Mitochondrial bioenergetics (MitoStress assay): Oxygen Consumption Rate (OCR) was monitored by using Seahorse XF^e24 Cell MitoStress Test Kit (Seahorse Bioscience). Prior to the assay, XF sensor cartridges were hydrated. MDA-MB-231 cells were seeded onto XF^e24-well cell culture plates at a density of 4×10^4 cells/well in 250 μL DMEM complete growth medium and then incubated for 48 h at 37° C. in 5% CO2 incubator. The cells were subsequently exposed to compounds of interest at different concentrations for 24 hours. The wells were washed with 250 μL of pre-warmed Seahorse XF DMEM media, supplemented with 10 mM glucose, 1 mM sodium pyruvate and 2 mM glutamine, pH 7.4 and replaced with 525 μL of this media. The plate was incubated at 37° C. in a non-CO2 incubator for 1 hour before the measurement. Three baseline measurements of OCR were recorded and 1 μM of olygomycin (ATP synthase complex inhibitor), 1 μM of FCCP (ATP synthesis uncoupler trifluorocarbonylcyanide phenylhydrazone) and a mixture of 0.5 μM of antimycin-A (inhibitor of complex III) and 0.5 μM of rotenone (inhibitor of electron transfer from Fe-S center of complex I to ubiquinone) were added in sequence. OCR was measured using Seahorse XF^e24 Cell Bioanalyzer (Seahorse Biosciences). The media was removed from the wells and 60 μL of 0.1 M NaOH was added. After vigorous pipetting, the protein content was quantified by BCA assay and OCR was normalized per protein content.

[2] = tested on: TAMH (transforming growth factor-a transgenic mouse hepatocytes); assay: MTT toxicity assay in hepatocytes TAMH; settings: read-out: EC50 TAMH, exposure time 72 hours
Method: (§2) Cell lines and culture conditions. Human ovarian carcinoma cells A2780 and A2780cisR, and human breast adenocarcinoma MDA-MB-231 cells, murine hepatocytes TAMH and human cardiomyocytes AC10 were obtained from ATCC.
Inhibition of cell viability assay. The cytotoxicity of the compounds was determined by colorimetric MTT assay. The cells were harvested from culture flasks by trypsinization and seeded into Cellstar 96-well microculture plates at the seeding density of 6000 cells per well (6×10^4 cells/mL). TAMH and AC10 cells were seeded at 12000 and 5000 cells per well, respectively. After cells were allowed to resume exponential growth for 24 hours, they were exposed to drugs at different concentrations in media for 72 hours. The drugs were diluted in complete medium at the desired concentration and added to each well (100 μL) and serially diluted to other wells. After exposure for 72 hours, the media was replaced with MTT in media (5 mg/mL, 100 μL) and incubated for additional 45 minutes. Subsequently, the medium was aspirated and the purple formazan crystals formed in viable cells were dissolved in DMSO (100 μL). Optical densities were measured at 570 nm using the BioTek H1 Synergy microplate reader. […] Evaluation was based on means from at least three independent experiments, each comprising six replicates per concentration level. […]

[3] = target: extracellular signal-regulated kinase 1 (ERK1) (Homo sapiens, UniProt P27361); assay: Kinase screening, radioactive 33P-ATP filter-binding assay, ERK1; settings: 10 μM of 3met
Method: (§3) Kinase screening was performed at the International Centre for Kinase profiling (University of Dundee, UK) according to literature procedure (Bain J, Plater L, Elliott M, Shpiro N, Hastie C J, McLauchlan H, et al. The selectivity of protein kinase inhibitors: a further update. Biochem J 2007; 408:297-315).

[4] = tumor-bearing mice
Method: Organ distribution studies: At the experimental endpoint, the hearts were perfused with PBS immediately before the excision of the organs. Brain, liver, kidney, spleen, heart, lung, bone and tumor tissues were collected from each mouse and flash-frozen in liquid nitrogen. The organs of the vehicle-treated mouse were used for the measurements of the background. The organs were lyophilized for 4 days, weighed, mechanically minced and digested in 100 μl of ultrapure 65% HNO3 at 105° C. for 3 days. The resulting solution was diluted to 2% v/v HNO3 with ultrapure Milli-Q water. Gold content was measured by ICP-MS as described above.
Additionally, the Au biodistribution across various organs in tumor-bearing mice was assessed.

[5] = Method: (§1) Animal experiments: 6-week-old female athymic nude mice were purchased from Invigo. Animals were housed in animal-holding units at Center for Comparative Medicine, Northwestern University in a pathogen-free environment at constant temperature in a 12/12-hour light/dark cycle. All animal procedures were carried out in accordance with a protocol approved by the Institutional Animal Care and Use Committee, Protocol number: IS00002999. Animals were acclimatized for 2 weeks following arrival before the beginning of experiments. Mice were allowed free access to food and water. […] MDA-MB-231 cells expressing firefly luciferase were collected by trypsinization and mixed with Matrigel (1:1) for fat pad injections. The MDA-MB-231 cell/matrigel mixture (100 μI) was injected into the fat pad of the fourth mammary glands on both sides of 6-week-old female athymic nude-Foxn1^nu mice (Envigo) at 2.5×10^5 cells/gland under ketamine/xylazine anesthesia (50-100/5-10 mg/kg). Ketaprofen and Buprenophrine SR were injected subcutaneously for pain management at 2-5 mg/kg and 0.5-1 mg/kg, respectively. The growth of tumors was monitored by live animal imaging. Once tumors became palpable (week 2 after tumor implantation), treatment was initiated. Animals were separated into two groups (7 mice in each group) and tumor dimensions were measured using a caliper by width×length (mm^2). […] Animals were sacrificed on week 6. Animals were controlled for distress development. Their weight changes were monitored every 2-3 days for 6 weeks. […] Statistical analysis was done by Student's unpaired T-test and One-way Anova test with post-hoc Dunnett test using GraphPad Prism 9 software.
The tolerability of the chosen dose level was judged based on the weight loss and clinical score.

[6] = tested on: MDA-MB-231 (breast adenocarcinoma); assay: MTT cytotoxicity assay, MDA-MB-231; settings: read-out: EC50 MDA-MB-231; MTT assay, exposure time 72 hours
Method: (§4) Human ovarian carcinoma cells A2780 and A2780cisR, and human breast adenocarcinoma MDA-MB-231 cells, murine hepatocytes TAMH and human cardiomyocytes AC10 were obtained from ATCC. […] The stock of cisplatin was commercially available clinical grade solution in saline buffer.
(§5) Inhibition of cell viability assay. The cytotoxicity of the compounds was determined by colorimetric MTT assay. The cells were harvested from culture flasks by trypsinization and seeded into Cellstar 96-well microculture plates at the seeding density of 6000 cells per well (6×10^4 cells/mL). TAMH and AC10 cells were seeded at 12000 and 5000 cells per well, respectively. After cells were allowed to resume exponential growth for 24 hours, they were exposed to drugs at different concentrations in media for 72 hours. The drugs were diluted in complete medium at the desired concentration and added to each well (100 μL) and serially diluted to other wells. After exposure for 72 hours, the media was replaced with MTT in media (5 mg/mL, 100 μL) and incubated for additional 45 minutes. Subsequently, the medium was aspirated and the purple formazan crystals formed in viable cells were dissolved in DMSO (100 μL). Optical densities were measured at 570 nm using the BioTek H1 Synergy microplate reader. […] Evaluation was based on means from at least three independent experiments, each comprising six replicates per concentration level.

[7] = tested on: c-Jun N-terminal kinase (JNK); settings: MDA-MB-231, apparent after 24 hours
Method: (§6) Western blotting. MDA-MB-231 cells were seeded into Cellstar 6-well plates (Greiner Bio-One) at a density of 60×10^4 cells/well (2 mL per well). After the cells were allowed to resume exponential growth for 24 hours, they were exposed to compounds of interest at various concentrations for 2, 6 and 24 hours. The cells were washed twice with PBS and lysed with RIPA buffer (50-100 μL) and kept for 5-10 minutes at 4° C. The samples were sonicated in ice bath (3 times for 30 seconds). The supernatant was then collected after centrifugation (1.3×10^4 rpm, 4° C. for 15 minutes) and total protein content of each sample was quantified via Bradford's assay. Equal quantities of protein (50 μg) were reconstituted in loading buffer (5× Laemmli Buffer with 5% DTT) and heated at 100° C. for 10 minutes. Subsequently, the protein mixtures were resolved on a 8%, 10% or 12% SDS-PAGE gel by electrophoresis (90 V for 30 minutes followed by 120 V for 60 minutes) and transferred onto a nitrocellulose membrane (200 mA for 2 hours). The protein bands were visualised with Ponceau S stain solution and the nitrocellulose membranes were cut into strips based on the protein ladder. The membranes were washed with a TBS-T wash buffer (0.1% Tween-20 in 1×PBS) 3 times for 5 minutes. […] Immune complexes were detected with Luminata HRP substrates and analysed using enhanced chemiluminescence imaging. […]

MDA-MB-231 cells [8] = assay: Cellular accumulation of Au by ICP-MS; settings: ICP-MS after 24 hour exposure at 1.4 μM
Method: Cellular accumulation of Au complexes was determined in MDA-MB-231 cells. Cells were seeded into Cellstar 6-well plates (Greiner Bio-one) at a density of 60×10^4 cells/well (2 mL per well). After the cells were allowed to resume exponential growth for 24 hours, they were exposed to compounds of interest at various concentrations for 24 hours at 37° C. The cells were washed twice with 1 mL of PBS and lysed with RIPA lysis buffer for 5-10 min at 4° C. The cell lysates were scraped from the wells and transferred to separate 1.5 mL microtubes. The supernatant was then collected after centrifugation (13000 rpm, 4° C. for 15 minutes) and total protein content of each sample was quantified via Bradford's assay. […] The resulting solution was diluted to 1 mL (2-4% v/v HNO3) with ultrapure Milli-Q water. Au content of each sample was quantified by ICP-MS. Re was used as an internal standard. […] Metal standards for calibration curve (0, 0.5, 1, 2, 5, 10, 20, 40 ppb) were freshly prepared before each measurement. All readings were made in triplicates in He mode.

[9] = Stability in ammonium carbonate buffer by high resolution ESI-MS; settings: ammonium carbonate buffer pH 7.4, 37° C., 1, 3 and 24 hours
Method: NMR and mass spectrometric (MS) methods were employed to characterize the stability of Au complexes in DMSO and aqueous media. ^1H NMR stability studies were performed over the period of 6-10 days in d^6-DMSO and D2O (1met*).

MDA-MB-231 cells [10] = tested on: MDA-MB-231 cells; remark: listed apart in the source
Method: Glycolysis Stress Test assay: Extracellular acidification rate (ECAR) was monitored by using Seahorse XF^e24 Glycolysis Stress Test Kit (Seahorse Bioscience). Prior to the assay, XF sensor cartridges were hydrated. MDA-MB-231 cells were seeded onto XF^e24-well cell culture plates at a density of 4×10^4 cells/well in 250 μL DMEM complete growth medium and then incubated for 48 hours at 37° C. in 5% CO2 incubator. The cells were subsequently exposed to compounds of interest at different concentrations for 24 hours. The wells were washed with 250 μL of pre-warmed Seahorse XF DMEM media, supplemented with 100 mM glutamine, pH 7.4 and replaced with 525 μL of this media. The plate was incubated at 37° C. in a non-CO2 incubator for 1 hour before the measurement. Three baseline measurements of ECAR were recorded and 10 mM of glucose, 1 μM of olygomycin and 100 mM of 2-deoxyglucose (2-DG) were added in sequence. ECAR was measured using Seahorse XF^e24 Cell Bioanalyzer (Seahorse Biosciences). The media was removed from the wells and 60 μL of 0.1 M NaOH was added. After vigorous pipetting, the protein content was quantified by BCA assay and OCR was normalized per protein content.

[11] = Reactivity towards glutathione, ligand release (HR-MS, UV-vis); type: physicochemical
Source text: NMR- and MS-based stability studies.
Intriguingly, the reactivity of Au^III-metformin complexes towards GSH was drastically different despite their similar structures.

[12] = tested on: LC3-II, p62, Ulk1 (Ser757); assay: Western blot, autophagy markers
Method: Western blotting. MDA-MB-231 cells were seeded into Cellstar 6-well plates (Greiner Bio-One) at a density of 60×10^4 cells/well (2 mL per well). After the cells were allowed to resume exponential growth for 24 hours, they were exposed to compounds of interest at various concentrations for 2, 6 and 24 hours. The cells were washed twice with PBS and lysed with RIPA buffer (50-100 μL) and kept for 5-10 minutes at 4° C. The samples were sonicated in ice bath (3 times for 30 seconds). The supernatant was then collected after centrifugation (1.3×10^4 rpm, 4° C. for 15 minutes) and total protein content of each sample was quantified via Bradford's assay. Equal quantities of protein (50 μg) were reconstituted in loading buffer (5× Laemmli Buffer with 5% DTT) and heated at 100° C. for 10 minutes. Subsequently, the protein mixtures were resolved on a 8%, 10% or 12% SDS-PAGE gel by electrophoresis (90 V for 30 minutes followed by 120 V for 60 minutes) and transferred onto a nitrocellulose membrane (200 mA for 2 hours). The protein bands were visualised with Ponceau S stain solution and the nitrocellulose membranes were cut into strips based on the protein ladder. The membranes were washed with a TBS-T wash buffer (0.1% Tween-20 in 1×PBS) 3 times for 5 minutes. Subsequently, they were blocked in 5% BSA (w/v) in wash buffer for 1 hour and incubated with the appropriate primary antibodies in 5% BSA (w/v) in wash buffer at 4° C. overnight. The membranes were washed with a wash buffer 3 times for 7 minutes. After incubation with HRP-conjugated secondary antibodies in 2% BSA (w/v) in wash buffer (room temperature, 2 hours), the membranes were washed with a wash buffer 4× for 5 minutes. Immune complexes were detected with Luminata HRP substrates and analysed using enhanced chemiluminescence imaging. Actin was used as a loading control. […]
One of the hallmarks of autophagy was the conversion of cytosolic LC3-I to autophagosome-bound LC3-II which was monitored by Western Blotting.

[13] = target: protein kinase B beta (PKBβ) (Homo sapiens, UniProt P31751, S474D); assay: Kinase screening, radioactive 33P-ATP filter-binding assay, PKBβ; settings: 10 μM of 3met
Method: as §3

MDA-MB-231 tumors [14] = assay: Histopathological examination of H&E-stained tumors (QuPath)
BiP, CHOP, p-elF2α = settings: 0.5 and 2EC50, 2, 6 and 24 hours
Method: as §6

MDA-MB-231 cells [15] = tested on: MDA-MB-231 cells; remark: listed apart in the source
Method: (§7) Inhibition of cell viability assay. The cytotoxicity of the compounds was determined by colorimetric MTT assay. The cells were harvested from culture flasks by trypsinization and seeded into Cellstar 96-well microculture plates at the seeding density of 6000 cells per well (6×10^4 cells/mL). TAMH and AC10 cells were seeded at 12000 and 5000 cells per well, respectively. After cells were allowed to resume exponential growth for 24 hours, they were exposed to drugs at different concentrations in media for 72 hours. The drugs were diluted in complete medium at the desired concentration and added to each well (100 μL) and serially diluted to other wells. After exposure for 72 hours, the media was replaced with MTT in media (5 mg/mL, 100 μL) and incubated for additional 45 minutes. Subsequently, the medium was aspirated and the purple formazan crystals formed in viable cells were dissolved in DMSO (100 μL). Optical densities were measured at 570 nm using the BioTek H1 Synergy microplate reader. […] Evaluation was based on means from at least three independent experiments, each comprising six replicates per concentration level. For experiments with inhibitors, MDA-MB-231 cells were seeded at the seeding density of 8000 cells per well (8×10^4 cells/mL).

MDA-MB-231 tumors [16] = tested on: MDA-MB-231 tumors
Method: as §1
Luciferase-transfected MDA-MB-231 cells were injected into […] 2 fat pads near inguinal nipples and tumor growth was controlled by bioluminescent imaging.

[17] = tested on: A2780cisR (ovarian carcinoma); assay: MTT cytotoxicity assay, A2780cisR
Method: as §4, §5

[18] = tested on: AC10 (human ventricular cardiomyocytes); assay: MTT toxicity assay in cardiomyocytes AC10; settings: read-out: EC50 AC10; MTT assay, exposure time 72 hours
Method: as §2, §7

[19] = tested on: A2780 (ovarian carcinoma); assay: MTT cytotoxicity assay, A2780; settings: read-out: EC50 A2780; MTT assay, exposure time 72 hours
Method: as §4, §5

rat liver TrxR = target: T1, rat liver TrxR (Rattus norvegicus, UniProt O89049); assay: Thioredoxin reductase inhibition, DTNB reduction assay; settings: read-out: IC50 TrxR; DTNB reduction assay, exposure time 30 min
T1 sequence (O89049 1-499): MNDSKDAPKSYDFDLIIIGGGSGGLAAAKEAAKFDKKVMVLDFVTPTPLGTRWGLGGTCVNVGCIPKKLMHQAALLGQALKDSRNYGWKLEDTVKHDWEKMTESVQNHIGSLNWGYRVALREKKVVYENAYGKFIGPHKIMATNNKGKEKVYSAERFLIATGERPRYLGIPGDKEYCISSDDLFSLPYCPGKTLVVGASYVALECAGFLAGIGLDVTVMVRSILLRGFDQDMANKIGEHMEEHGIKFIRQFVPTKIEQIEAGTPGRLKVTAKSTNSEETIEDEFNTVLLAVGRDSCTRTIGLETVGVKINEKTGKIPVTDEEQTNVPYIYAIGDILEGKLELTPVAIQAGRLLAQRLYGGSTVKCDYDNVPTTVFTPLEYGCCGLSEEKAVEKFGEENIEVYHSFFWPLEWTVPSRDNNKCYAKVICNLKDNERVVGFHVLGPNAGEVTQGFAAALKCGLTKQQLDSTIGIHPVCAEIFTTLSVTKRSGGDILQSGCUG
Method: Thioredoxin reductase inhibition assay. Assay was performed according to the protocol provided by the manufacturer. […] Compounds of interest were serially diluted at the separate 96-well plate and 4 μl of each concentration was added to the appropriate wells. The reaction mixture was incubated with gentle shaking (room temperature, 30 minutes). Subsequently, 6 μl of DNTB (100 mM) was added and incubated for an additional 3 minutes.
Compounds of interest at six different concentrations were incubated with the isolated rat liver TrxR enzyme in the presence of NADPH for 30 minutes, followed by 2 minutes incubation with the DNTB reagent.

insulin receptor (IR) = insulin receptor (IR) (Homo sapiens, UniProt P06213); assay: Kinase screening, radioactive 33P-ATP filter-binding assay, IR; settings: 10 μM of 3met
Chain of insulin receptor (IR) (P06213 1001-1382 limits assumed): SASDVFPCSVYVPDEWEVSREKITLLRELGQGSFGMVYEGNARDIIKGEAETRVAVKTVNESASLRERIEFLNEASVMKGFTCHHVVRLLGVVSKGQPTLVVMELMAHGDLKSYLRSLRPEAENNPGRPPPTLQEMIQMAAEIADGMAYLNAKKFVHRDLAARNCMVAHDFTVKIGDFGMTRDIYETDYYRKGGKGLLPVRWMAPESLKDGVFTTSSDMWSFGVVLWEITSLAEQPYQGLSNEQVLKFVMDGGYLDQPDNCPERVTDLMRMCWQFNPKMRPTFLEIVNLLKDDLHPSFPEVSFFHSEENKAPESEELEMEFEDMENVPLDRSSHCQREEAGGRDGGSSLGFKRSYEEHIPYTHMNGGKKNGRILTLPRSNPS
Method: as §3

Chain of extracellular signal-regulated kinase 1 (ERK1) (P27361 whole entry): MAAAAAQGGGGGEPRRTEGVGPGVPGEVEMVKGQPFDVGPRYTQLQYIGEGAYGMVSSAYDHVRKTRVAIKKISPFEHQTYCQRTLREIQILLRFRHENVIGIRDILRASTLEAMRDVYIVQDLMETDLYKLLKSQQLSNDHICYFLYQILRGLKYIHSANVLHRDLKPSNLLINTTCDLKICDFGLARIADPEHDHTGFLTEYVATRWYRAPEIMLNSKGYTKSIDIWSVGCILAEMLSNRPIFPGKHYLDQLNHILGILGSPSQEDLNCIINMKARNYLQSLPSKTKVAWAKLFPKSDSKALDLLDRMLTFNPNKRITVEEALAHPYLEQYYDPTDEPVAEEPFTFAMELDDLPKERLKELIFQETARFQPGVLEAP
Chain of protein kinase B beta (PKBβ) (P31751 120-481 S474D limits assumed): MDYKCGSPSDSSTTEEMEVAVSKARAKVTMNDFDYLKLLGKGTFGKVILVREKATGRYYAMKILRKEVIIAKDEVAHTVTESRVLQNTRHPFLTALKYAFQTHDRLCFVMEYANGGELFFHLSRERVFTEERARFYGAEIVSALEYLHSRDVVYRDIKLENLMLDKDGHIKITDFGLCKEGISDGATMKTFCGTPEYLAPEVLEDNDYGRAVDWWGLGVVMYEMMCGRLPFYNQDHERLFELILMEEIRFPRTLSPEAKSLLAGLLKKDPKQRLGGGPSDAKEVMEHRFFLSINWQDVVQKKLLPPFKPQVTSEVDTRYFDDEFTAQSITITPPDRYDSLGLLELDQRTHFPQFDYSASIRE

## CN(C)C1=[NH+][Au-]2([NH]C(N)=N1)[c]1ccccc1C(=O)c1cccc[n+]12.F[P-](F)(F)(F)(F)F (stereo not shown) [Compound 3met]
MDA-MB-231 cells [1]; 24 hours
  non-mitochondrial respiration: not significantly inhibited
MDA-MB-231 cells [1]; 24 hours, increasing concentrations
  mitochondrial bioenergetic parameters (OCR): dose-dependent progressive decrease of all mitochondrial bioenergetic parameters
MDA-MB-231 cells [1]; as low as
  concentration significantly inhibiting mitochondrial respiration: 1.5 µM
[2]
  EC50: 2700 ± 700 nM
[3]
  inhibition of ERK1: 90%
[4]
  Au biodistribution in words: selectively accumulated in tumors
[5]; 20 mg/kg, day 6
  weight loss: 11% and 10%
[5]; histopathological changes
  dose-limiting toxicity: kidney and liver toxicity
[5]; intraperitoneal route, daily for 4-5 days
  maximum tolerated dose (MTD): 15 mg/kg
[6]
  EC50: 720 ± 80 nM
[7]
  JNK phosphorylation: JNK phosphorylation already at 0.5 EC50 drug concentrations
MDA-MB-231 cells [8]
  Cellular accumulation MDA-MB-231: 1.37 ± 0.48 nmol Au/mg protein
[9]
  stability, detection of molecular ion [M]+: stable for 24 hours
MDA-MB-231 cells [10]; 0.05 μM, 24 hours
  glycolytic parameters (ECAR), low concentration: significant increase of all glycolytic parameters
MDA-MB-231 cells [10]; 1.5 μM, 24 hour exposure
  glycolytic reserve (ECAR), higher concentration: significantly declined glycolytic reserve
[11]; 1 eq. GSH, ammonium carbonate
  decrease of peak area of 3met+ (M+) signal: more than 27 fold
[11]; 1 eq. GSH, ammonium carbonate, after 3 hours
  increase of peak area of metformin signal (m/z 130.1078): more than 5 fold
[11]; with GSH, HR-MS and UV-vis
  reactivity towards GSH / ligand release in words: time-dependent release of metformin
[12]; 2EC50, 24 hours
  Ulk1 phosphorylation at Ser757: marked dephosphorylation of Ulk1 at Ser757 site
[12]; MDA-MB-231
  p62 levels: increase of p62 levels
[12]; MDA-MB-231, concentration- and time-dependent
  LC3-II expression: significantly enhanced the expression of LC3-II
[13]
  inhibition of PKBβ: 100%
MDA-MB-231 tumors [14]; H&E
  inflammatory cells infiltration of tumors: marked inflammatory cells infiltration
MDA-MB-231 tumors [14]; single tumor image
  Area: 23769502 μm^2 and 27637537.7 μm^2 and 28709913 μm^2
  Necrosis %: 32.52% and 41% and 26.24%
  Necrosis area: 7.73 mm^2 and 11.33 mm^2 and 7.533 mm^2
  Perimeter: 20891.3 μm and 25672.2 μm and 21813.3 μm
  Tumor %: 60.11% and 34.58% and 66.37%
  Tumor area: 14.29 mm^2 and 9.556 mm^2 and 19.05 mm^2
BiP, CHOP, p-elF2α
  CHOP expression over time: time-dependent increase of CHOP
MDA-MB-231 cells [15]; 3-methyladenine 2 mM, 24 hours
  increase of 3met activity in presence of 3-MA: more than 2 times
MDA-MB-231 cells [15]; CHX 12.5 μM, 24 hours
  abrogation of 3met-induced cell death by cycloheximide: ≈ 3.5 times
MDA-MB-231 cells [15]; JNK inhibitor SP600125 20 μM
  abrogation of 3met activity by SP600125: ≈ 1.7 fold
MDA-MB-231 tumors [16]; 15 mg/kg i.p., weeks 3, 4 and 5, vs vehicle
  tumor growth: no tumor growth was observed after week 3
MDA-MB-231 tumors [16]; 15 mg/kg, 7 mice per group
  deaths in drug-treated group: Two mice died
MDA-MB-231 tumors [16]; H&E, endpoint, 5 weeks
  kidney histopathology: distorted glomeruli, dilated tubules, edema exudate, light necrosis
  liver histopathology: vacualization, fatty changes, periportal lymphoid infiltration and expansion of Disse space in A and B, and focal necrosis in C
[17]; IC50 (A2780cisR)/IC50 (A2780)
  RF (Resistance Factor): 4
[17]; read-out: EC50 A2780cisR, MTT assay, exposure time 72 hours
  EC50: 530 ± 70 nM
[18]
  EC50: 7400 ± 3000 nM
[19]
  EC50: 150 ± 30 nM
Rat liver TrxR
  IC50: 1.3 ± 0.3 nM
Insulin receptor (IR)
  inhibition of IR kinase: 70%
